Assays:
Set-up in all cases: key: Active: Compounds with an IC50 value less than 30 μM were deemed to be active.; Not Active: Compounds with an IC50 value less than 30 μM were deemed to be active
[1] = molecular target: T1, Brd4 bromodomain 1 (BRD4(1)) (Homo sapiens, UniProt O60885); assay: Inhibition of tetra-acetylated histone H4 binding to Brd4 bromodomain 1 (TR-FRET); conditions: tetra-acetylated histone H4 peptide, active = IC50 <30 μM
T1 construct: Illustrative results with the first bromodomain of Brd4; made in house; host or cells: E. coli BL21 (DE3)
Procedure, shortened: (§1)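 IC50 values come from dose-response curves of the 665 nm to 620 nm TR-FRET signal decrease, measured after 2 h at room temperature. Reactions contained 200 nM E. coli-expressed His-tagged bromodomain, 25-50 nM biotinylated tetra-acetylated H4 peptide, Eu-streptavidin plus XL665 anti-His antibody, with 30 mM HEPES pH 7.4, 320 mM KF and 0.2% DMSO.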

[2] = molecular target: T2, second bromodomain of Brd2 (BRD2(2)) (Homo sapiens, UniProt P25440); assay: Inhibition of tetra-acetylated histone H4 binding to Brd2 bromodomain 2 (TR-FRET); conditions: tetra-acetylated histone H4 peptide, active = IC50 <30 μM
T2 construct: made in house; host or cells: E. coli BL21 (DE3)
T2 sequence (P25440 344-453 limits assumed): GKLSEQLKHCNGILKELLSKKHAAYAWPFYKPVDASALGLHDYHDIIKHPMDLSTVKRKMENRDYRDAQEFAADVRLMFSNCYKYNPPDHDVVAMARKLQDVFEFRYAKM
Procedure, shortened: as §1

[3] = system: c-myc; assay: Inhibition of c-myc expression in MV4-11 cells (mRNA, real-time PCR); type: cell-based; conditions: Human AML MV4-11 cells, 3 h incubation
Experimental: MV4-11 cells (2.5×10^4 cells) were plated in 96 well U-bottom plates with test compound or DMSO (0.1%), and incubated for 3 h at 37° C. Cells were then harvested by centrifugation, lysed, and mRNA was isolated using the mRNA catcher plus kit (Invitrogen). Reverse transcription of the mRNA and duplex amplification of the c-myc and cyclophilin cDNAs was performed using the RNA Ultrasense kit (Invitrogen) and a ViiA7 real-time PCR machine (Applied Biosystems). IC50 values were determined from a dose response curve.

[4] = system: human AML MV-4-11 (CRL-9591) cells; assay: Inhibition of cell proliferation in MV4-11 cells; type: cell-based; conditions: human AML MV-4-11 cells, 72 h; active = IC50 <30 μM
Experimental: MV4-11 cells: 96-well plates were seeded with 5×10^4 cells per well of exponentially growing human AML MV-4-11 (CRL-9591) cells and immediately treated with two-fold dilutions of test compounds, ranging from 30 μM to 0.2 μM. Triplicate wells were used for each concentration, as well as a media only and three DMSO control wells. The cells and compounds were incubated at 37° C., 5% CO2 for 72 h before adding 20 μL of the CellTiter Aqueous One Solution (Promega) to each well and incubating at 37° C., 5% CO2 for an additional 3-4 h. The absorbance was taken at 490 nm in a spectrophotometer and the percentage of proliferation relative to DMSO-treated cells was calculated after correction from the blank well. IC50 were calculated using the GraphPad Prism software.

[5] = system: hIL-6 mRNA; assay: Inhibition of hIL-6 mRNA transcription in U937 cells; type: cell-based, human; conditions: LPS stimulation, active = IC50 <30 μM
Experimental: In this example, hIL-6 mRNA in tissue culture cells was quantitated to measure the transcriptional inhibition of hIL-6 when treated with a compound of the present disclosure.
A human leukemic monocyte lymphoma cell line (U937) was plated (3.2×10^4 cells per well) in a 96-well plate in […] RPMI-1640 containing 10% FBS and penicillin/streptomycin, and differentiated into macrophages for 3 days in 60 ng/mL PMA ([…]) at 37° C. in 5% CO2 prior to the addition of the compound of interest. The cells were pretreated for 1 h with the test compound prior to stimulation with 1 ug/mL lipopolysaccharide from Escherichia coli. The cells were incubated at 37° C. for 3 h before the cells were harvested. At time of harvest, the spent media was removed from the cells and the cells were rinsed in […] PBS. Cell lysis solution (70 μL) was added the cells in each well and incubated for 5-10 min at room temperature, to allow for complete cell lysis and detachment. mRNA was then prepared using the “mRNA Catcher PLUS plate” (Invitrogen), according to the protocol supplied. After the last wash, as much wash buffer as possible was aspirated without allowing the wells to dry. Elution buffer (E3, 70 μL) was then added to each well. mRNA was then eluted by incubating the mRNA Catcher PLUS plate with Elution Buffer for 5 min at 68° C. and then immediately placing the plate on ice.
The eluted mRNA isolated was then used in a one-step quantitative real-time PCR reaction, using components of the Ultra Sense Kit together with Applied Biosystems primer-probe mixes. Real-time PCR data was analyzed, normalizing the Ct values for hIL-6 to an internal control, prior to determining the fold induction of each unknown sample, relative to the control.

Compound | FRET activity (IC50 <30 μM) BRD4(1) [1] | FRET activity (IC50 <30 μM) BRD2(2) [2] | c-myc activity (IC50 <30 μM) [3] | Cell Proliferation activity (IC50 <30 μM) [4] | IL-6 activity (IC50 <30 μM) [5]
Cc1noc(C)c1-c1cc(C)c(=O)n(Cc2ccccc2)n1 [Example 21, 2-Benzyl-6-(3,5-dimethylisoxazol-4-yl)-4-methylpyridazin-3(2H)-one] | Active | Active | Active | Not Active | Active
Cc1noc(C)c1-c1ccc(=O)n(C(C)c2ccccc2F)n1 (stereo not drawn) [Example 95, 6-(3,5-Dimethylisoxazol-4-yl)-2-(1-(2-fluorophenyl)ethyl)pyridazin-3(2H)-one] | Active | Active | Not Active | Not Active | Active
Cc1noc(C)c1-c1cc(C)c(=O)n(Cc2ccccc2F)n1 [Example 84, 6-(3,5-Dimethylisoxazol-4-yl)-2-(2-fluorobenzyl)-4-methylpyridazin-3(2H)-one] | Active | Active | Not Active | Not Active | Active
Cc1noc(C)c1-c1ccc(=O)n(C(C)c2ccc(F)cc2)c1 (stereo not drawn) [Example 101, 5-(3,5-Dimethylisoxazol-4-yl)-1-(1-(4-fluorophenyl)ethyl)pyridin-2(1H)-one] | Active | Active | Active | Active | Active
Cc1noc(C)c1-c1cc(N)c(=O)n(Cc2ccc(N3CCOCC3)cc2)c1 [Example 238, 3-Amino-5-(3,5-dimethylisoxazol-4-yl)-1-(4-morpholinobenzyl)pyridin-2(1H)-one] | Active | – | Active | Active | Active
Cc1noc(C)c1-c1cc(N)c(=O)n(C(C)c2ccccc2)c1 (stereo not drawn) [Example 263, 3-amino-5-(3,5-dimethylisoxazol-4-yl)-1-(1-phenylethyl)pyridin-2(1H)-one] | Active | – | Active | Active | Active
Cc1noc(C)c1-c1cc(N)c(=O)n(Cc2ncccc2Cl)c1 [Example 254, 3-amino-1-((3-chloropyridin-2-yl)methyl)-5-(3,5-dimethylisoxazol-4-yl)pyridin-2(1H)-one] | Active | – | Active | Active | Active
Cc1noc(C)c1-c1cc(N)c(=O)n(Cc2ccc(C#N)s2)c1 [Example 264, 5-((3-amino-5-(3,5-dimethylisoxazol-4-yl)-2-oxopyridin-1(2H)-yl)methyl)thiophene-2-carbonitrile] | Active | – | Active | Active | Active
Cc1noc(C)c1-c1cc(N)c(=O)n(Cc2ccc(C#N)c(Br)c2)c1 [Example 273, 4-((3-amino-5-(3,5-dimethylisoxazol-4-yl)-2-oxopyridin-1(2H)-yl)methyl)-2-bromobenzonitrile] | Active | – | Active | Active | Active
COCc1noc(C)c1-c1ccc(=O)n(Cc2ccccc2)c1 [Example 187, 1-benzyl-5-(3-(methoxymethyl)-5-methylisoxazol-4-yl)pyridin-2(1H)-one] | Active | – | Not Active | Not Active | Not Active

Continued, values first:

FRET activity (IC50 <30 μM) BRD4(1) [1] | FRET activity (IC50 <30 μM) BRD2(2) [2] | c-myc activity (IC50 <30 μM) [3] | Cell Proliferation activity (IC50 <30 μM) [4] | IL-6 activity (IC50 <30 μM) [5] | Compound
Active | Active | Active | Active | Active | Cc1noc(C)c1-c1ccc(=O)n(Cc2ccc(C#N)cc2)c1 [Example 137, 4-((5-(3,5-Dimethylisoxazol-4-yl)-2-oxopyridin-1(2H)-yl)methyl)benzonitrile]
Active | Active | Active | Active | Active | Cc1noc(C)c1-c1ccc(=O)n(Cc2ccccc2Cl)c1 [Example 127, 1-(2-Chlorobenzyl)-5-(3,5-dimethylisoxazol-4-yl)pyridin-2(1H)-one]
Active | Active | Active | Active | Active | Cc1noc(C)c1-c1ccc(=O)n(Cc2cccc(Cl)c2)c1 [Example 126, 1-(3-Chlorobenzyl)-5-(3,5-dimethylisoxazol-4-yl)pyridin-2(1H)-one]
Active | – | Active | Active | Active | Cc1noc(C)c1-c1cc(N)c(=O)n(Cc2ccc(I)cc2)c1 [Example 267, 3-amino-5-(3,5-dimethylisoxazol-4-yl)-1-(4-iodobenzyl)pyridin-2(1H)-one]
Active | – | Not Active | Not Active | Active | Cc1noc(C)c1-c1cc(Nc2ccccc2)c(=O)n(Cc2ccc(Cl)cc2)c1 [Example 188, 1-(4-chlorobenzyl)-5-(3,5-dimethylisoxazol-4-yl)-3-(phenylamino)pyridin-2(1H)-one]
Active | – | Active | Active | Active | Cc1noc(C)c1-c1cc(N)c(=O)n(Cc2cccc3ncccc23)c1 [Example 274, 3-amino-5-(3,5-dimethylisoxazol-4-yl)-1-(quinolin-5-ylmethyl)pyridin-2(1H)-one]
Active | – | Active | Active | Active | Cc1noc(C)c1-c1cc(N)c(=O)n(Cc2ccc(N3CCC3)cc2)c1 [Example 237, 3-Amino-1-(4-(azetidin-1-yl)benzyl)-5-(3,5-dimethylisoxazol-4-yl)pyridin-2(1H)-one]

— patent US9271978B2 (Zenith Epigenetics Corp., priority 2012, dated 2016)
